One assay deals with JNK2 (Homo sapiens, UniProt P45984). To be noted: IC50, Ki or Kd from the literature; cited from earlier work.
The target in a further assay is EGFR (Homo sapiens, UniProt P00533). To be noted: IC50, Ki or Kd from the literature; cited from earlier work.
For another assay, the target named is ERBB2 (Homo sapiens, UniProt P04626). The note with it: IC50, Ki or Kd from the literature; cited from earlier work.
Assay [1] has as its target T1, p38α (Homo sapiens, UniProt Q16539). To be noted: IC50, Ki or Kd from the literature; cited from earlier work.
Assay [2] addresses T1, p38α. The experiment in a line: Competition binding assay, phage-displayed kinase vs immobilized ATP-site ligand (SB202190). Details: the coding region for p38α was cloned into the phage genome in-frame with the gene encoding the major T7 capsid protein; made in house; host or cells: T7 phage grown in E. coli (BLT 5615 in the illustrative protocol); lysate used directly.

Like-named read-outs stand apart in the source and are kept apart here.

T1 sequence (Q16539 whole entry): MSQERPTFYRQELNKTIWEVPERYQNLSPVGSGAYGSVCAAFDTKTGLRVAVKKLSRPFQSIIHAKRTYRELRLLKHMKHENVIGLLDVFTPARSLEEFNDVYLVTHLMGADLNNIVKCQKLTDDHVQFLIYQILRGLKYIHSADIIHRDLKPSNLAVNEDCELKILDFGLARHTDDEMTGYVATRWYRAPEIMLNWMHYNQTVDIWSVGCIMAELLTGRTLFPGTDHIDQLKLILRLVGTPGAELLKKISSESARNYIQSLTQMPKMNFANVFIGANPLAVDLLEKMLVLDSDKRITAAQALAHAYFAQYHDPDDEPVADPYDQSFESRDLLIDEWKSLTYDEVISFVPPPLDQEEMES
EGFR, sequence (P00533 25-1210, species assumed): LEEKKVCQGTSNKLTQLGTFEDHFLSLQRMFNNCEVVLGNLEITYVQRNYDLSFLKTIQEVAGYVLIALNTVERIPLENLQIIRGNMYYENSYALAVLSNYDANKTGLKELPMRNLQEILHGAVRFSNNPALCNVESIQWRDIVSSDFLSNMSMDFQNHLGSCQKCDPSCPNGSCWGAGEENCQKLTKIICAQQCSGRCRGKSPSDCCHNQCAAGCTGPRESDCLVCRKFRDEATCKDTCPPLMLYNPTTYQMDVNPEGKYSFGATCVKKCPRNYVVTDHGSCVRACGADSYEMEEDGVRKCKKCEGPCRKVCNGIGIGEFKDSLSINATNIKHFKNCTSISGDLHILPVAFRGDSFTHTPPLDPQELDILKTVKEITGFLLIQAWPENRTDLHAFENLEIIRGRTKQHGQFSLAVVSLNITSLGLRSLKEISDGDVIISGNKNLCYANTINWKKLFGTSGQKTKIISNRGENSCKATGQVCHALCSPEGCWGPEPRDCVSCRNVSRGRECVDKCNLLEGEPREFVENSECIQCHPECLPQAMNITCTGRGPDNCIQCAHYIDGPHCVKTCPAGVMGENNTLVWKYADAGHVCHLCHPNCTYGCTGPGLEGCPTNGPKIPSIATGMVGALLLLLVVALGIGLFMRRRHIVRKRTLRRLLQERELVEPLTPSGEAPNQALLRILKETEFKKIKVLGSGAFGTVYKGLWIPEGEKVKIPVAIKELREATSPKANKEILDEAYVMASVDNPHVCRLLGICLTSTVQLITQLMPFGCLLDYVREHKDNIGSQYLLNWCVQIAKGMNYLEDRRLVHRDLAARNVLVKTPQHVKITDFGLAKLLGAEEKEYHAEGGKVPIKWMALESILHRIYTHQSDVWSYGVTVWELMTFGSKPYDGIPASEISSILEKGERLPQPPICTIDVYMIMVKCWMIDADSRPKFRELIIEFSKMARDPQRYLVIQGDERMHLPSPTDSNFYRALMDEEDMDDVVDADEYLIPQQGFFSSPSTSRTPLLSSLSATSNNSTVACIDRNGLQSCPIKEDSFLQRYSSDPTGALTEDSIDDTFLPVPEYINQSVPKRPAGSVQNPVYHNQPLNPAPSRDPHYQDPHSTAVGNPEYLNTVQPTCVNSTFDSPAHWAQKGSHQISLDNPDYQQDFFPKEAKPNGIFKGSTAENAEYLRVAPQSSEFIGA
ERBB2, sequence (P04626 23-1255, species assumed): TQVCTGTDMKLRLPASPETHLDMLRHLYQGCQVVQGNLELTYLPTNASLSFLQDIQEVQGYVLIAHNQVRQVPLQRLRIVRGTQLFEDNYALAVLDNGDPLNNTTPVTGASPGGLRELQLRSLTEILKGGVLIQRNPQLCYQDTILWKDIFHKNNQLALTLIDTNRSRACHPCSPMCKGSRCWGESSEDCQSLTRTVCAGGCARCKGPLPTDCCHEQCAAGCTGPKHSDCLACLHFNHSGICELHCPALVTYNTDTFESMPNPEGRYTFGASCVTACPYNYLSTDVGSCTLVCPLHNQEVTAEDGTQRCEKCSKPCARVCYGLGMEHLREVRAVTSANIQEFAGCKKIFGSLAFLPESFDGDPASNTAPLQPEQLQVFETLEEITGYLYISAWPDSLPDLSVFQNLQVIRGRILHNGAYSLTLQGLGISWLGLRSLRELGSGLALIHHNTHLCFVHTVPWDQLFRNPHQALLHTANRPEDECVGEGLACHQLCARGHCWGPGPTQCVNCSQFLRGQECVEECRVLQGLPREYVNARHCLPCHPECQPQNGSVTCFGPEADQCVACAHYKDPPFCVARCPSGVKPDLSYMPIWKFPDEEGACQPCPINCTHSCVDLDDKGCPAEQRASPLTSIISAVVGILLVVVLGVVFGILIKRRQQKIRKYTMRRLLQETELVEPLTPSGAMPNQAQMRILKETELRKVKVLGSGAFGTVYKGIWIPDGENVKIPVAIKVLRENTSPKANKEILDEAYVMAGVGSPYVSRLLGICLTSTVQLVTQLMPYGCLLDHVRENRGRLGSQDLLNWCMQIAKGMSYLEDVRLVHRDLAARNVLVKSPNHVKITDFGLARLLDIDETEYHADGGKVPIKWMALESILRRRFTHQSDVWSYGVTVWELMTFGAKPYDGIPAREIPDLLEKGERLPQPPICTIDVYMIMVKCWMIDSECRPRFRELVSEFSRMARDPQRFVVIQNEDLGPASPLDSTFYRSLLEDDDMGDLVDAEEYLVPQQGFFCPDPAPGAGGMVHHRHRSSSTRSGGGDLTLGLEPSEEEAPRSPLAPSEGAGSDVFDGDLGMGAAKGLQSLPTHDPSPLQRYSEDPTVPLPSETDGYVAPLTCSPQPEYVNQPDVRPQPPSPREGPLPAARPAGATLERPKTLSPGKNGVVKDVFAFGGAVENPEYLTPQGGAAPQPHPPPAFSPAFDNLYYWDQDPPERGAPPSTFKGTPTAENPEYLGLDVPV
JNK2, sequence (P45984 whole entry, species assumed): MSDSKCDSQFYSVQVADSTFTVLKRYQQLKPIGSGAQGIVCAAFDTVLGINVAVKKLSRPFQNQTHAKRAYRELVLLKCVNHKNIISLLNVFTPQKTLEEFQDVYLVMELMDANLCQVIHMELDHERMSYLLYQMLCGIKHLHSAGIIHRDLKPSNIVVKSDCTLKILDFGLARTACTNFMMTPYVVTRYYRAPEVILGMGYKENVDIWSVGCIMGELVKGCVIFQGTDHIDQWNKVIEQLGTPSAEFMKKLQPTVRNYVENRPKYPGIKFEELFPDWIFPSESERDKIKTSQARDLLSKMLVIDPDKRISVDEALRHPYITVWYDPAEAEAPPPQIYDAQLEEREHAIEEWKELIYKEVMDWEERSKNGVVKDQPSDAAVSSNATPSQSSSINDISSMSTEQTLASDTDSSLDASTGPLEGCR

For `O=C1c2ccccc2-c2n[nH]c3cccc1c23` [CC-401], at JNK2, the Published was 110 (Z. Han et al., J. Clin. Invest. 108, 73 (2001)) nM. Regarding `CS(=O)(=O)CCNCc1ccc(-c2ccc3c(Nc4ccc(OCc5cccc(F)c5)c(Cl)c4)ncnc3c2)o1` [GW-2016], the Published on EGFR is recorded as 11 (D. W. Rusnak et al., Mol. Cancer Ther. 1, 85 (2001)) nM; on ERBB2, 9.2 (D. W. Rusnak et al., Mol. Cancer Ther. 1, 85 (2001)) nM. Consider `Oc1ccc(-c2nc(-c3ccncc3)c(-c3ccc(F)cc3)[nH]2)cc1` [SB202190], for which, on p38α [1], the Published is recorded as 37 (B. Frantz et at., Biochemistry 37, 13846 (1998)). nM. In addition, the “binding (association) kinetics” value on p38α [2] (p38, known and also observed in the competition assays) is on record as “fast”. On to `CCc1nc(-c2ccc(OC)cc2)[nH]c1-c1ccncc1` [SB202474], for which, at p38α [2], the “decrease of the amount of phage-displayed p38 bound to the solid support” value is reported as “neither SB202474 nor purvalanol A had a significant effect”.

In the case of `CC(C)[C@H](CO)Nc1nc(Nc2cccc(Cl)c2)c2ncn(C(C)C)c2n1` [purvalanol A], the “decrease of the amount of phage-displayed p38 bound to the solid support” value on p38α [2] (competition with immobilized SB202190, FIG. 1B) was “neither SB202474 nor purvalanol A had a significant effect”.

These data come from patent publication US9267165B2, “Assays and kits for detecting protein binding” (DiscoveRx Corporation, priority 2002, dated 2016).
